Test results: patent US9062095B2, “Mutant double cyclized receptor peptides inhibiting β1-adrenoceptor antibodies” (JULIUS-MAXIMILIANS-UNIVERSTITAT-WURZBURG, priority 2007, dated 2015)
Positions of bridges follow the written chain, without caps; N, C: chain ends.

Experiments:
Design in all cases: species or system rat
[1] = tested on: beta1-ECII receptor antibody-titers; assay: in vivo therapy study cyc22AA versus cyc18AA Cys/Ser in rats immunized over 8 months: antibody-titers; conditions: injections every 4 weeks, start at month 8; mean ±SEM (FIG. 28A)
Excerpt: FIGS. 28A and B depict the in vivo blocking (=neutralization) capacity of two cysteine-containing 18AA or 22AA cyclopeptide-mutants of the second extracellular loop (ECII) of the human beta1-adrenergic receptor upon therapeutic injection of the different constructs into rats regularly immunized since 8 months (first=basic immunization followed by 7 antigen-boosts every 4 weeks). The effects of four to five subsequent cyclopeptide-injections every 4 weeks are shown. FIG. 28A depicts the mean values±SEM of each of the treated groups of immunized beta1-ECII-antibody positive cardiomyopathic rats (animal number per group is given in the legend). […] The remaining receptor antibody-titers after each injection in % of the antibody-titers at start therapy (month 8) are depicted (columns). Error bars indicate ±SEM. Numbers in columns indicate the number of (subsequent) monthly injection.
FIG. 28B depicts the time course of antibody-titers after 4 subsequent cyclopeptide-injections, determined before and 20-22 hours after application of the indicated constructs. Values are given in percent of increase or decrease in the respective antibody-titers after each cyclopeptide-injection compared with the antibody-titer determined at start of therapy (month 8). […]

[2] = tested on: anti-beta1-receptor antibody-titers; assay: in vivo therapy study in long term immunized cardiomyopathic rats: antibody-titers by ELISA; conditions: for in vivo blocking capacity after the first i.v. injection: sera 18-20 hours after injection (FIGS. 14 and 15)
Procedure: FIG. 16A is a diagram resuming the in vivo blocking effect of both 25AA and 18AA cyclopeptide mutants with a Gln closure site, determined after a total of nine intravenous (i.v.) in-jections of 1.0 mg/kg body weight (Bw) of the indicated peptides into immunized antibody-positive rats. Sera were drawn before and 18-20 hours after i.v. injection of the various peptides every 4 weeks (abscissa: time in months of treatment) and assayed for reactivity by ELISA using the 3 Cys-containing linear 25AA Cys/Cys-peptide as an antigen.
FIG. 16B is a diagram resuming the in vivo blocking effect of various concentrations of 18AA cyclopeptide mutants with a Gln closure site, determined after a total of nine intra-venous (i.v.) injections of 0.25, 1.0, 2.0, and 4.0 mg/kg body weight (Bw) into immunized antibody-positive rats, irrespective of the cyclopeptide “responder-state” of individual animals. Sera were drawn before and 18-20 hours after i.v. injection of the various peptides every 4 weeks (abscissa: time in months), and assayed for reactivity by ELISA using the 3 Cys-containing linear 25AA Cys/Cys-peptide as an antigen.
Sera were drawn as described above and assayed for reactivity by ELISA using the 3 Cys-containing linear 25AA Cys/Cys-peptide as an antigen.
Moreover, the in vivo blocking effects of therapeutically used 25AA and 18AA Cys/Ser cyclo-peptide mutants, the 18AA Ser/Cys mutant (Gln-)cyclopeptide, and a mutated linear 18AA Cys/Ser peptide were assessed after a first intravenous (i.v.) dose (i.e., 1.0 mg/kg body weight (Bw)) of each construct injected into long term immunized anti-beta1-ECII antibody-positive rats, yet presenting a cardiomyopathic phenotype (after nine months of 1× monthly immunization with the beta1-ECII/GST antigen; FIGS. 14-16 and 17). Sera were drawn 18-20 hours after the first i.v. injection of the various constructions and assayed for reactivity by ELISA using the 3 Cys-containing linear 25AA Cys/Cys-peptide as an antigen.
(§1) The latter doses were almost equally efficient in terms of both, neutralization of circulating receptor antibodies (FIGS. 16b and c), and reversal of antibody-induced cardiomyopathic features (FIGS. 17b, 19b, 20, and 21b).
In order to generate anti-β1-receptor antibodies the animals were immunized with a fusion protein containing bacterial glutathione-S-transferase and the sequence of the second extra-cellular loop of the human β1-adrenergic receptor (GST/β1-ECII). Before treatment of the animals with mutated cyclopeptides according to the present invention, progressive dilated immune cardiomyopathy is observed after 6 to 8 months of regular immunization every four weeks (FIG. 17). All of the immunized animals developed high titers of stimulatory anti-β1-ECII antibodies. The specific anti-β1-ECII titer reached a maximum between 6 and 8 months of continuously boosting the animals every 4 weeks, whereas NaCl-injected control animals developed no specific receptor antibodies (FIG. 18).
Such immunized animals were used for the application of mutant cyclopeptides according to the present invention. The in-vivo blocking effect of both 25AA and 18AA Cys/Ser mutant cyclopeptides (with a Gln closure site) were determined after a first intravenous (i.v.) injection of 1.0 mg/kg body weight (Bw) (for 18AA Cys/Ser cyclopeptides also 0.25 mg/kg/Bw) into immunized antibody-positive rats. Sera were drawn 18-20 hours after i.v. injection of the different peptides and assayed for reactivity by ELISA using the 3 Cys-containing linear 25AA Cys/Cys-peptide as an antigen.

[3] = tested on: rats with antibody-induced immune-cardiomyopathy; assay: in vivo therapy study: cardioprotective effect (echocardiography, hemodynamics, organ weights)
Excerpt: FIG. 17.A is a diagram showing the time course (month 0 to 20) of the internal end-systolic and end-diastolic left ventricular diameters (LVES, LVED) of GST/β1-ECII-immunized un-treated (black circles) versus GST/β1-ECII-immunized animals treated with the indicated various cyclopeptides (see legend) as determined by echocardiography (echocardiographic system: Visual Sonics, Vevo 770 (version V2.2.3), equipped with a 15-17.5 MHz transducer), whereby LVES/LVED is left ventricular end-systolic diameter/left ventricular end-diastolic diameter.
FIG. 17.B is a similar diagram showing the time course (month 0 to 20) of the internal end-systolic and end-diastolic left ventricular diameters (LVES, LVED) of GST/β1-ECII-immunized untreated (black circles) versus GST/β1-ECII-immunized animals, treated with different concentrations of the 18AA Cys/Ser cyclopeptide mutant (see legend).
FIG. 19A is a diagram depicting the time course (month 0 to 20) of the “Cardiac index” (CI) in ml/min/g (body weight) as determined by echocardiography (echocardiographic system see legend to FIG. 17a.).
as §1

[4] = 0.25 mg/kg Bw, repeated injections every 4 weeks
[5] = 4.0 mg/kg body weight, repeated injections every 4 weeks

Cyclo-Ala-Asp-Glu-Ala-Arg-Arg-Cys-Tyr-Asn-Asp-Pro-Lys-Cys-Ser-Asp-Phe-Val-Gln (cyclo(ADEARRCYNDPKCSDFVQ); disulfide 7-13; SMILES CC(C)[C@@H]1NC(=O)[C@H](Cc2ccccc2)NC(=O)[C@H](CC(=O)O)NC(=O)[C@H](CO)NC(=O)[C@@H]2CSSC[C@H](NC(=O)[C@H](CCCNC(=N)N)NC(=O)[C@H](CCCNC(=N)N)NC(=O)[C@H](C)NC(=O)[C@H](CCC(=O)O)NC(=O)[C@H](CC(=O)O)NC(=O)[C@H](C)NC(=O)[C@H](CCC(N)=O)NC1=O)C(=O)N[C@@H](Cc1ccc(O)cc1)C(=O)N[C@@H](CC(N)=O)C(=O)N[C@@H](CC(=O)O)C(=O)N1CCC[C@H]1C(=O)N[C@@H](CCCCN)C(=O)N2) [18AA Cys/Ser mutant (Gln-)cyclopeptide, disulphide bond Cys7-Cys13, ring closure Ala1-Gln18]
antibody-titer remaining after 4 injections in percent of the titer at start of therapy [1]: 76.0±23.0% | number of responders (after 7 injections remaining antibody level equal or inferior to 80% of titer at start of therapy) ([2]; 0.25 mg/kg Bw (FIG. 16C)): 3/4 | achieved decrease in circulating receptor-antibodies compared with 1.0 or 2.0 mg/kg [2, 4]: clearly less efficient | in vivo blocking capacity after the first i.v. injection ([2]; 0.25 mg/kg body weight): no relevant decrease in receptor-antibodies | number of responders (after 7 injections remaining antibody level equal or inferior to 80% of titer at start of therapy) ([2]; 1.0 mg/kg Bw (FIG. 16C)): 16/20 | initial transient increase in antibody-titers ([2]; 1.0 mg/kg Bw (FIGS. 16a and b)): did not occur | in vivo blocking capacity after the first i.v. injection ([2]; 1 mg/kg Bw, listed as 18AA Cys/Ser cyclopeptide mutant): largely superior to that of the linear 18AA Cys/Ser peptide mutant | in vivo blocking capacity after the first i.v. injection ([2]; 1 mg/kg Bw, listed as 18AA Cys/Ser cyclopeptide mutants): higher in vivo blocking capacity | absolute decrease in antibody-titers after 9 months of treatment, of the titer at start of therapy ([2]; 1.0 mg/kg i.v. every 4 weeks): −59±14% | initial transient increase in antibody-titers ([2]; 2.0 mg/kg Bw): did not occur | number of responders (after 7 injections remaining antibody level equal or inferior to 80% of titer at start of therapy) ([2]; 2.0 mg/kg Bw (FIG. 16C)): 2/5 | absolute decrease in antibody-titers after 9 months of treatment, of the titer at start of therapy ([2]; 2.0 mg/kg i.v. every 4 weeks): −59±12% | number of responders (after 7 injections remaining antibody level equal or inferior to 80% of titer at start of therapy) ([2]; 4.0 mg/kg Bw (FIG. 16C)): 6/9 | initial transient increase in antibody-titers ([2]; 4.0 mg/kg Bw (high dose)): transient increase in antibody-titers | antibody scavenging capacity compared with 1.0 or 2.0 mg/kg [2, 5]: did not result in higher efficiency | absolute decrease in antibody-titers after 9 months of treatment, of the titer at start of therapy ([2]; 4.0 mg/kg i.v. every 4 weeks): −39±14% | achieved cardioprotective effect compared with 1.0 or 2.0 mg/kg [3, 4]: clearly less efficient | cardioprotective effects compared with 1.0 or 2.0 mg/kg [3, 5]: did not result in higher efficiency | reversal of antibody-induced cardiomyopathic features ([3]; 1.0 or 2.0 mg/kg Bw (FIGS. 17B, 19B, 20, 21B)): best cardioprotection
